The values below are quoted from earlier work in US9961900B2, “Herbicide formulations” (priority 2012, dated 2018).

Converted amounts (≈) assume the structure as drawn. Like-named read-outs stand apart in the source and are kept apart here. Where only a bound is given, the exact number is not on record here.

Experiment in series [1]: not given
The source holds these as a separate data set.

Experiment in series [2]: not given
The source holds these as a separate data set.

The conditions of series [3]: for Aqueous hydrolysis: at pH 7 and 20° C.

`C=CCO/N=C(\CCC)C1=C(O)CC(C)(C)C(C(=O)OC)C1=O` (racemic) [aloxydim, methyl (1RS)-3-[(E)-1-(allyloxyimino)butyl]-4-hydroxy-6,6-dimethyl-2-oxocyclohex-3-enecarboxylate]: the “Aqueous photolysis DT50” value (pH 7) is listed as “Aqueous photolysis DT50 at pH 7: 0.22 days ^+”.

Regarding `CCOC(=O)C(Cl)Cc1cc(-n2nc(C)n(C(F)F)c2=O)c(F)cc1Cl` (racemic) [carfentrazone-ethyl, ethyl (RS)-2-chloro-3-{2-chloro-5-[4-(difluoromethyl)-4,5-dihydro-3-methyl-5-oxo-1H-1,2,4-triazol-1-yl]-4-fluorophenyl}propionate], in series [1] (pH 7, 20° C.), the “log P (octanol-water)” value is listed as “logP = 3.36”. In series [2] (20° C.), the Solubility in acetone was 2000 mg/mL (≈ 4850 mM), the Solubility in ethanol is 2000 mg/mL (≈ 4850 mM), the Solubility in hexane is 30 mg/mL (≈ 72.8 mM) and the Solubility in toluene is 900 mg/mL (≈ 2180 mM). Moreover, in series [2] (20° C.), the Solubility in water result is “Water: 22 mg/L (20° C.)”. Moreover, the “Aqueous hydrolysis (DT50)” value in series [3] (20° C. and pH 7) is on record as 13.7 (non-persistent) days. Moreover, the Aqueous hydrolysis stability entry in series [3] (pH 5, 20° C.) is listed as “pH sensitive: stable at pH 5,”. In addition, the “Hydrolysis DT50” value in series [3] (pH 9, 20° C.) is “DT50 5.1 hours at pH 9, (20° C.)^+”.

In the case of `CCS[C@H](C)C[C@H]1CC(=O)C(C(CC)=NOC/C=C/Cl)=C(O)C1` (racemic) [clethodim, (5RS)-2-{(1EZ)-1-[(2E)-3-chloroallyloxyimino]propyl}-5-[(2RS)-2-(ethylthio)propyl]-3-hydroxycyclohex-2-en-1-one], the “Aqueous photolysis DT50” value (pH 5, 25° C.) is recorded as 1.6 days; the “Aqueous photolysis DT50” value (pH 7, 25° C.) is on record as “Aqueous photolysis DT50 at pH 7: 5.45 days (25° C.)”; the “Aqueous photolysis DT50” value (pH 9, 25° C.) was 7.79 days.

For the compound `CCCC(=NOCC)C1=C(O)C[C@@H]([C@H]2CCCSC2)CC1=O` (racemic) [cycloxydim, (5RS)-2-[(EZ)-1-(ethoxyimino)butyl]-3-hydroxy-5-[(3RS)-thian-3-yl]cyclohex-2-en-1-one], the “Aqueous photolysis DT50” value (pH 7) is “Aqueous photolysis DT50 at pH 7: 0.05 days ^+”.

For `CC(Oc1ccc(Oc2ccc(Cl)cc2Cl)cc1)C(=O)O` (racemic) [diclofop, (RS)-2-[4-(2,4-dichlorophenoxy)phenoxy]propionic acid], the “log P (octanol-water)” value in series [1] (pH 5) is given as “log P = 2.81”; in series [1] (pH 7), “log P = 1.61”.

With `CCOC(=O)C(C)Oc1ccc(Oc2nc3ccc(Cl)cc3s2)cc1` (racemic) [fenthiaprop-ethyl, ethyl (RS)-2-[4-(6-chloro-1,3-benzothiazol-2-yloxy)phenoxy]propionate], in series [2], the Solubility in acetone result is recorded as “In acetone, ethyl acetate, toluene, >500 g/kg;”; the Solubility in cyclohexane is above 40 g/kg; the Solubility in ethanol is above 50 mg/mL; the “Solubility in ethyl acetate” value was “In acetone, ethyl acetate, toluene, >500 g/kg;”. Besides, in series [2], the Solubility in n-octanol was above 50 mg/mL; the Solubility in toluene result is on record as “In acetone, ethyl acetate, toluene, >500 g/kg;”; the Solubility in water result was “Water: 0.8 mg/L”.

`CCCCOC(=O)C(C)Oc1ccc(Oc2ccc(C(F)(F)F)cn2)cc1` (racemic) [fluazifop-butyl, butyl (RS)-2-{4-[5-(trifluoromethyl)-2-pyridyloxy]phenoxy}propionate]: the “log P (octanol-water)” value in series [1] (20° C.) is recorded as “log P = 4.5”. The “Solubility in propylene glycol” value in series [2] (20° C.) is “dichloromethane, and xylene. Propylene glycol, 24 g/L”. Moreover, the Solubility in water result in series [2] (pH 6.5) is listed as “Water: 1 mg/L at pH 6.5”.

Consider `CC(Oc1ccc(Oc2ncc(C(F)(F)F)cc2Cl)cc1)C(=O)O` (racemic) [haloxyfop, (RS)-2-{4-[3-chloro-5-(trifluoromethyl)-2-pyridyloxy]phenoxy}propionic acid], for which the “Aqueous hydrolysis (DT50)” value in series [3] (20° C. and pH 7) is recorded as “Stable”. Moreover, the “Aqueous photolysis DT50” value (pH 7) is given as “Aqueous photolysis DT50 at pH 7: 12 days”.

Take `CCOC(=O)C(C)Oc1ccc(Oc2cnc3cc(Cl)ccc3n2)cc1` (racemic) [quizalofop-ethyl, ethyl (2RS)-2-[4-(6-chloroquinoxalin-2-yloxy)phenoxy]propionate]: the “Stability in aqueous media” value in series [3] (pH 3) was “Stable at pH 3-7 ^+”.

In the case of `CCCC(=NOCC)C1=C(O)C[C@@H](C[C@@H](C)SCC)CC1=O` (racemic) [sethoxydim, (5RS)-2-[(EZ)-1-(ethoxyimino)butyl]-5-[(2RS)-2-(ethylthio)propyl]-3-hydroxycyclohex-2-en-1-one], the “Aqueous photolysis DT50” value (pH 7) is “Aqueous photolysis DT50 at pH 7: 0.02 days ^+”.

In the case of `CCON=C(CC)C1=C(O)CC(c2c(C)cc(C)cc2C)CC1=O` (racemic) [tralkoxydim, (RS)-2-[(EZ)-1-(ethoxyimino)propyl]-3-hydroxy-5-mesitylcyclohex-2-en-1-one], the values for the Solubility in water in series [2] (pH 5.2), in series [2] (pH 6.5) and in series [2] (pH 9) were 6.7 mg/L at 22 °C (pH 5.2), 6.1 mg/L at 22 °C (pH 6.5) and 9820 mg/L at 22 °C (pH 9.0), respectively. The “Aqueous hydrolysis (DT50)” value in series [3] (20° C. and pH 7) was “at 20 °C and pH 7: 140 days”. The “Hydrolysis DT50” value in series [3] (pH 5, 25° C.) is “pH sensitive: DT50 9 days at pH 5,”. The Aqueous hydrolysis stability entry in series [3] (pH 9) was “stable at pH 9, all at 25° C.^+”. In addition, the “Aqueous photolysis DT50” value (pH 7) was “Aqueous photolysis DT50 at pH 7: 5.8 days 5.8 ^+”.

In the case of `C#CCOc1cc(-n2nc3n(c2=O)CCCC3)c(Cl)cc1Cl` [azafenidin, 2-(2,4-dichloro-5-prop-2-ynyloxyphenyl)-5,6,7,8-tetrahydro-1,2,4-triazolo[4,3-a]pyridin-3(2H)-one], the “log P (octanol-water)” value in series [1] (pH 7, 20° C.) was “logP = 2.7”. In addition, the Solubility in water result in series [2] (20° C.) is reported as “Water: 16 mg/L (20° C.) ^++”. The “Aqueous photolysis DT50” value (Pesticide Properties Database) is 0.5 days.

In the case of `COc1nc(C)nc(NC(=O)NS(=O)(=O)c2ccccc2Cl)n1` [chlorsulfuron], the “Aqueous hydrolysis (DT50)” value is 1 days in series [3] (at pH 5) and “Stable” in series [3] (at pH 7). Also, the “Photolytic stability DT50” value (pH 7) is “DT50: 18.8 d”.

On to `C#CCOC(=O)[C@@H](C)Oc1ccc(Oc2ncc(Cl)cc2F)cc1` [clodinafop-propargyl, prop-2-ynyl (R)-2-[4-(5-chloro-3-fluoro-2-pyridyloxy)phenoxy]propionate], for which the “Behaviour in alkaline media” value in series [3] (alkaline media) is on record as “hydrolyzes”. The “Hydrolytic DT50” value was 4.8 days in series [3] (pH 7, 25° C.) and 0.07 days in series [3] (pH 9, 25° C.). Further, the “Aqueous photolysis DT50” value (pH 7) was “Aqueous photolysis DT50 at pH 7: 24 days”.

On to `CCCCOC(=O)[C@@H](C)Oc1ccc(Oc2ccc(C#N)cc2F)cc1` [cyhalofop-butyl, butyl (R)-2-[4-(4-cyano-2-fluorophenoxy)phenoxy]propionate], for which the “log P (octanol-water)” value in series [1] (pH 7, 20° C.) was “log P = 4.8”. In addition, the “Aqueous hydrolysis (DT50)” value in series [3] (20° C. and pH 7) is “Aqueous hydrolysis DT50 at 20 °C and pH 7: 97 days”. For the same compound, the Aqueous hydrolysis stability entry in series [3] (pH 4, 25° C.) is on record as “Stable”. The “Hydrolysis DT50” value in series [3] (pH 9, 25° C.) is given as 2 days.

As for `CCCCOC(=O)[C@@H](C)Oc1ccc(Oc2ccc(C(F)(F)F)cn2)cc1` [fluazifop-P-butyl, butyl (R)-2-{4-[5-(trifluoromethyl)-2-pyridyloxy]phenoxy}propionate], the “Aqueous hydrolysis (DT50)” value in series [3] (20° C. and pH 7) was “Aqueous hydrolysis DT50 (days) at 20 °C and pH 7: 78”. Besides, the “Hydrolysis DT50” value in series [3] (pH 5, 25° C., darkness) was “Stable”; in series [3] (pH 9, 25° C., darkness), 1.21 days. Further, the “Aqueous photolysis DT50” value (pH 7) is “Aqueous photolysis DT50 at pH 7: 6 days”.

On to `Cc1ccn2nc(S(=O)(=O)Nc3c(F)cccc3F)nc2n1` [flumetsulam], for which the “Photolytic stability DT50” value (pH 7) is on record as “DT50: 270 d”.

For `C[C@@H](Oc1ccc(Oc2ncc(C(F)(F)F)cc2Cl)cc1)C(=O)O` [haloxyfop-P, (R)-2-{4-[3-chloro-5-(trifluoromethyl)-2-pyridyloxy]phenoxy}propionic acid], the “Aqueous photolysis DT50” value (pH 7) is given as “Aqueous photolysis DT50 at pH 7: 12 days”.

Consider `COc1cc(OC)n2nc(S(=O)(=O)Nc3c(Cl)ccc(C)c3Cl)nc2n1` [metosulam], for which the Aqueous hydrolysis result in series [3] is reported as “Stable”. Further, the “Photolytic stability DT50” value (pH 7) was “DT50: 31.1 d”.

In the case of `COC(=O)c1ccccc1S(=O)(=O)NC(=O)Nc1nc(C)nc(OC)n1` [metsulfuron-methyl], the “Aqueous hydrolysis (DT50)” value was 2 days in series [3] (at pH 5) and “Stable” in series [3] (at pH 7). Besides, the “Photolytic stability DT50” value (pH 7) is listed as “Stable”.

`COc1cc(OC)nc(NC(=O)NS(=O)(=O)c2ncccc2C(=O)N(C)C)n1` [nicosulfuron]: the “Aqueous hydrolysis (DT50)” value in series [3] (at pH 5) was 15 days; in series [3] (at pH 7), “Stable”. Moreover, under “at pH 7”, the “Photolytic stability DT50” value is listed as “DT50: 202 d”.

With `COc1cnc(OC)n2nc(NS(=O)(=O)c3c(OCC(F)F)cccc3C(F)(F)F)nc12` [penoxsulam], in series [3], the Aqueous hydrolysis entry is “Stable (at pH 7 and 20° C.)”. Moreover, the “Photolytic stability DT50” value (pH 7) was “DT50: 2 d (at pH 7)”.

As for `CC(C)=NOCCOC(=O)[C@@H](C)Oc1ccc(Oc2cnc3cc(Cl)ccc3n2)cc1` [propaquizafop, 2-isopropylideneaminooxyethyl (R)-2-[4-(6-chloroquinoxalin-2-yloxy)phenoxy]propionate], the “Hydrolytic DT50” value in series [3] (pH 5, 25° C.) is 10.5 days; in series [3] (pH 7, 25° C.), 32.0 days; in series [3] (pH 9, 25° C.) it was 0.538 days.

For the compound `COc1cc(OC)n2nc(NS(=O)(=O)c3c(C(F)(F)F)ccnc3OC)nc2n1` [pyroxsulam], the Aqueous hydrolysis result in series [3] is recorded as “Stable (“”)”. Further, the “Photolytic stability DT50” value (pH 7) was “DT50: 3.2 d (“”)”.

Consider `C[C@@H](Oc1ccc(Oc2cnc3cc(Cl)ccc3n2)cc1)C(=O)OCC1CCCO1` (stereo partly shown) [quizalofop-P-tefuryl], for which the “Aqueous hydrolysis (DT50)” value in series [3] (20° C. and pH 7) is “Aqueous hydrolysis DT50 at 20 °C and pH 7: 18.2 days”. The “Hydrolysis DT50” value in series [3] (pH 5.1, 22° C.) was 8.2 days; in series [3] (pH 9.2, 22° C.) it was 0.3 days. For the same compound, the “Aqueous photolysis DT50” value (pH 7) is on record as “Aqueous photolysis DT50 at pH 7: 1.0 days”.

Turning to `COC(=O)c1ccccc1S(=O)(=O)NC(=O)N(C)c1nc(C)nc(OC)n1` [tribenuron-methyl], the “Aqueous hydrolysis (DT50)” value in series [3] (at pH 5) is 2.2 days; in series [3] (at pH 7), 16. Besides, the “Photolytic stability DT50” value (pH 7) is recorded as “Stable”.
